The test system of this test is MV-4-11 cells. The test is described as follows: Gene expression microarray analysis (Affymetrix PrimeView) and GSEA. It counts as cell-based, human. The arrangement: RFU PODN (11730768_x_at) / Fold change /veh PODN (11730768_x_at) / RFU LINC00158 (11744669_a_at) / Fold change /veh LINC00158 (11744669_a_at) / RFU DUSP10 (11751237_a_at) / Fold change /veh DUSP10 (11751237_a_at) / RFU ID3 (11757404_x_at) / Fold change /veh ID3 (11757404_x_at) / RFU PLEKHG5 (11737974_s_at) / Fold change /veh PLEKHG5 (11737974_s_at) / RFU LRRC4B (11730491_at) / Fold change /veh LRRC4B (11730491_at) / RFU GIMAP4 (11747438_a_at) / Fold change /veh GIMAP4 (11747438_a_at) / RFU KRT8 (11758183_x_at) / Fold change /veh KRT8 (11758183_x_at) / RFU CNN1 (11734310_a_at) / Fold change /veh CNN1 (11734310_a_at) / RFU VPS37D (11726825_at) / Fold change /veh VPS37D (11726825_at) / RFU C10orf10 (11716522_x_at) / Fold change /veh C10orf10 (11716522_x_at) / RFU KIR2DL2 /// KIR2DL4 /// KIR2DL5A /// KIR2DL5B /// KIR2DS1 /// KIR2DS2 /// KIR2DS3 /// KIR2DS4 /// KIR3DL3 /// KIR3DL3 /// KIR3DS1 (11738374_at) / Fold change /veh KIR2DL2 /// KIR2DL4 /// KIR2DL5A /// KIR2DL5B /// KIR2DS1 /// KIR2DS2 /// KIR2DS3 /// KIR2DS4 /// KIR3DL3 /// KIR3DL3 /// KIR3DS1 (11738374_at) / RFU C1QL1 (11718748_at) / Fold change /veh C1QL1 (11718748_at) / RFU TMPRSS4 (11747572_a_at) / Fold change /veh TMPRSS4 (11747572_a_at) / RFU HAMP (11756126_x_at) / Fold change /veh HAMP (11756126_x_at) / RFU RNFT2 (11725882_a_at) / Fold change /veh RNFT2 (11725882_a_at) / RFU NR4A2 (11747474_a_at) / Fold change /veh NR4A2 (11747474_a_at) / RFU ABCC12 (11746883_a_at) / Fold change /veh ABCC12 (11746883_a_at) / RFU TMEM136 (11760407_x_at) / Fold change /veh TMEM136 (11760407_x_at) / RFU CLDN22 /// WWC2 (11732394_at) / Fold change /veh CLDN22 /// WWC2 (11732394_at) / RFU HLA-DPB1 (11760878_x_at) / Fold change /veh HLA-DPB1 (11760878_x_at) / RFU SPINT1 (11716480_a_at) / Fold change /veh SPINT1 (11716480_a_at) / RFU GAP43 (11754022_s_at) / Fold change /veh GAP43 (11754022_s_at) / RFU A4GNT (11735810_at) / Fold change /veh A4GNT (11735810_at) / RFU PRB3 (11715151_x_at) / Fold change /veh PRB3 (11715151_x_at) / RFU TUBB4B (11761932_at) / Fold change /veh TUBB4B (11761932_at) / RFU CAPN14 (11732068_a_at) / Fold change /veh CAPN14 (11732068_a_at) / RFU TMCC2 (11721928_a_at) / Fold change /veh TMCC2 (11721928_a_at) / RFU IRGQ (11745062_a_at) / Fold change /veh IRGQ (11745062_a_at) / RFU FAM174B (11720279_a_at) / Fold change /veh FAM174B (11720279_a_at) / RFU TMPRSS4 (11748680_a_at) / Fold change /veh TMPRSS4 (11748680_a_at) / RFU FAM212B (11763350_a_at) / Fold change /veh FAM212B (11763350_a_at) / RFU PLEKHG5 (11743358_a_at) / Fold change /veh PLEKHG5 (11743358_a_at) / RFU ZSCAN30 (11745921_a_at) / Fold change /veh ZSCAN30 (11745921_a_at) / RFU CMKLR1 (11741424_a_at) / Fold change /veh CMKLR1 (11741424_a_at) / RFU LOC101060620 /// MAPK8IP1 (11723275_at) / Fold change /veh LOC101060620 /// MAPK8IP1 (11723275_at) / RFU SPTSSB (11747773_x_at) / Fold change /veh SPTSSB (11747773_x_at) / RFU PRSS12 (11739890_at) / Fold change /veh PRSS12 (11739890_at) / RFU BIN1 (11741810_x_at) / Fold change /veh BIN1 (11741810_x_at) / RFU WNT11 (11732464_a_at) / Fold change /veh WNT11 (11732464_a_at) / RFU C10orf10 (11716521_a_at) / Fold change /veh C10orf10 (11716521_a_at) / RFU C5orf56 (11738089_at) / Fold change /veh C5orf56 (11738089_at) / RFU CYB561 (11721691_x_at) / Fold change /veh CYB561 (11721691_x_at) / RFU ANKRD19P (11752326_a_at) / Fold change /veh ANKRD19P (11752326_a_at) / RFU OR2T12 /// OR2T33 /// OR2T8 (11738714_s_at) / Fold change /veh OR2T12 /// OR2T33 /// OR2T8 (11738714_s_at) / RFU VCAN (11748164_a_at) / Fold change /veh VCAN (11748164_a_at) / RFU JSRP1 (11732532_at) / Fold change /veh JSRP1 (11732532_at) / RFU KRTAP10-11 (11738290_x_at) / Fold change /veh KRTAP10-11 (11738290_x_at) / RFU MYO3A (11730013_a_at) / Fold change /veh MYO3A (11730013_a_at) / RFU EBF3 (11725865_a_at) / Fold change /veh EBF3 (11725865_a_at) / RFU CAMK2N1 (11719241_x_at) / Fold change /veh CAMK2N1 (11719241_x_at) / RFU C5orf56 (11738088_a_at) / Fold change /veh C5orf56 (11738088_a_at) / RFU OLFML3 (11715873_a_at) / Fold change /veh OLFML3 (11715873_a_at) / RFU LOC100653217 /// NTM (11731650_a_at) / Fold change /veh LOC100653217 /// NTM (11731650_a_at) / RFU MAPK11 (11762145_a_at) / Fold change /veh MAPK11 (11762145_a_at) / RFU FIZ1 (11724087_x_at) / Fold change /veh FIZ1 (11724087_x_at) / RFU OASL (11726364_x_at) / Fold change /veh OASL (11726364_x_at) / RFU SOX15 (11748057_x_at) / Fold change /veh SOX15 (11748057_x_at) / RFU CD79A (11719716_a_at) / Fold change /veh CD79A (11719716_a_at) / RFU HIST1H1D (11736915_at) / Fold change /veh HIST1H1D (11736915_at) / RFU CASKIN2 (11723855_a_at) / Fold change /veh CASKIN2 (11723855_a_at) / RFU LOC730098 (11760151_x_at) / Fold change /veh LOC730098 (11760151_x_at) / RFU OR4N2 (11742367_at) / Fold change /veh OR4N2 (11742367_at) / RFU PRRT2 (11749266_a_at) / Fold change /veh PRRT2 (11749266_a_at) / RFU SNX32 (11753110_a_at) / Fold change /veh SNX32 (11753110_a_at) / RFU CDHR5 (11726645_a_at) / Fold change /veh CDHR5 (11726645_a_at) / RFU RCAN1 (11760418_a_at) / Fold change /veh RCAN1 (11760418_a_at) / RFU FAM167A (11723789_a_at) / Fold change /veh FAM167A (11723789_a_at) / RFU FAM26E (11764081_at) / Fold change /veh FAM26E (11764081_at) / RFU ISYNA1 (11749810_s_at) / Fold change /veh ISYNA1 (11749810_s_at) / RFU ACY1 (11761880_at) / Fold change /veh ACY1 (11761880_at) / RFU 11764098_at / Fold change /veh 11764098_at / RFU SAMD14 (11745864_x_at) / Fold change /veh SAMD14 (11745864_x_at) / RFU NPB (11741838_a_at) / Fold change /veh NPB (11741838_a_at) / RFU TMPRSS6 (11731388_a_at) / Fold change /veh TMPRSS6 (11731388_a_at) / RFU KRTAP10-2 (11738614_at) / Fold change /veh KRTAP10-2 (11738614_at) / RFU ARHGAP8 /// PRR5-ARHGAP8 (11727945_x_at) / Fold change /veh ARHGAP8 /// PRR5-ARHGAP8 (11727945_x_at) / RFU KRTAP5-7 /// NADSYN1 (11734609_at) / Fold change /veh KRTAP5-7 /// NADSYN1 (11734609_at) / RFU RASL12 (11751679_a_at) / Fold change /veh RASL12 (11751679_a_at) / RFU CDKN2B (11736163_a_at) / Fold change /veh CDKN2B (11736163_a_at) / RFU PRF1 (11729649_at) / Fold change /veh PRF1 (11729649_at) / RFU, ZNF638 /// ZNF638-IT1 / Fold change vs veh, ZNF638 /// ZNF638-IT1 / RFU, PANK3 / Fold change vs veh, PANK3 / RFU, SH3YL1 / Fold change vs veh, SH3YL1 / RFU, ZEB2 / Fold change vs veh, ZEB2 / RFU, NRIP1 / Fold change vs veh, NRIP1 / RFU, PTTG1IP / Fold change vs veh, PTTG1IP / RFU, CAPN2 / Fold change vs veh, CAPN2 / RFU, MED14 / Fold change vs veh, MED14 / RFU, SNORA58 / Fold change vs veh, SNORA58 / RFU, C1orf63 / Fold change vs veh, C1orf63 / RFU, LRRFIP1 / Fold change vs veh, LRRFIP1 / RFU, NDUFAF7 / Fold change vs veh, NDUFAF7 / RFU, SLC12A2 / Fold change vs veh, SLC12A2 / RFU, IBTK / Fold change vs veh, IBTK / RFU, ESF1 / Fold change vs veh, ESF1 / Fold change vs veh, TMEM50B / RFU, TAOK1 / Fold change vs veh, TAOK1 / RFU, ACBD3 / Fold change vs veh, ACBD3 / RFU, TMA16 / Fold change vs veh, TMA16 / RFU, RWDD3 / Fold change vs veh, RWDD3 / RFU, BCAT1 / Fold change vs veh, BCAT1 / RFU, EDEM3 / Fold change vs veh, EDEM3 / RFU, TMEM33 / Fold change vs veh, TMEM33 / RFU, WDR75 / Fold change vs veh, WDR75 / RFU, AHCTF1 / Fold change vs veh, AHCTF1 / RFU, TFRC / Fold change vs veh, TFRC / RFU, ZDHHC17 / Fold change vs veh, ZDHHC17 / RFU, NOM1 / Fold change vs veh, NOM1 / RFU, ARL8B / Fold change vs veh, ARL8B / RFU, ZBTB11 / Fold change vs veh, ZBTB11 / RFU, TAMM41 / Fold change vs veh, TAMM41 / RFU, KIAA1704 /// LOC100996395 / Fold change vs veh, KIAA1704 /// LOC100996395 / RFU, ING1 / Fold change vs veh, ING1 / RFU, TRMT61B / Fold change vs veh, TRMT61B / RFU, FUBP3 / Fold change vs veh, FUBP3 / RFU, TP53 / Fold change vs veh, TP53 / RFU, TNKS2 / Fold change vs veh, TNKS2 / RFU, ZFP14 / Fold change vs veh, ZFP14 / RFU, ACTR2 / Fold change vs veh, ACTR2 / RFU, PPP3R1 / Fold change vs veh, PPP3R1 / RFU, PIK3R1 / Fold change vs veh, PIK3R1 / RFU, HNRNPA1 / Fold change vs veh, HNRNPA1 / RFU, RNF170 / Fold change vs veh, RNF170 / RFU, ZNF28 / Fold change vs veh, ZNF28 / RFU, RNGTT / Fold change vs veh, RNGTT / RFU, OGT / Fold change vs veh, OGT / RFU, BRD1 / Fold change vs veh, BRD1 / RFU, MARS / Fold change vs veh, MARS / RFU, ZNF655 / Fold change vs veh, ZNF655 / RFU, FAHD1 / Fold change vs veh, FAHD1 / RFU, BDP1 / Fold change vs veh, BDP1 / RFU, LRRCC1 / Fold change vs veh, LRRCC1 / RFU, ARID1A / Fold change vs veh, ARID1A / RFU, ZNF146 / Fold change vs veh, ZNF146 / RFU, ZNF330 / Fold change vs veh, ZNF330 / RFU, GPN3 / Fold change vs veh, GPN3 / RFU, C9orf123 / Fold change vs veh, C9orf123 / RFU, N4BP2L2 / Fold change vs veh, N4BP2L2 / RFU, ARFIP1 / Fold change vs veh, ARFIP1 / RFU, FAM179B / Fold change vs veh, FAM179B / RFU, BCL10 / Fold change vs veh, BCL10 / RFU, UHRF1BP1L / Fold change vs veh, UHRF1BP1L / RFU, BET1 / Fold change vs veh, BET1 / RFU, CNOT2 / Fold change vs veh, CNOT2 / RFU, ZNF268 / Fold change vs veh, ZNF268 / Fold change vs veh, ZNF507 / RFU, DGCR2 / Fold change vs veh, DGCR2 / RFU, WDSUB1 / Fold change vs veh, WDSUB1 / Fold change vs veh, HSP90B1 /// MIR3652 / RFU, ADSS / Fold change vs veh, ADSS / RFU, GK / Fold change vs veh, GK / RFU, ZNF148 / Fold change vs veh, ZNF148 / RFU, TAF9 / Fold change vs veh, TAF9 / RFU, SLC1A5 / Fold change vs veh, SLC1A5 / RFU, SLMO2 / Fold change vs veh, SLMO2 / RFU, ABCC4 / Fold change vs veh, ABCC4 / RFU, LOC101060439 /// RAP1B / Fold change vs veh, LOC101060439 /// RAP1B / RFU, RFX7 / Fold change vs veh, RFX7 / RFU, GTPBP10 / Fold change vs veh, GTPBP10 / RFU, CNEP1R1 / Fold change vs veh, CNEP1R1 / RFU, BIVM-ERCC5 /// ERCC5 / Fold change vs veh, BIVM-ERCC5 /// ERCC5 / RFU, ILF3 / Fold change vs veh, ILF3 / RFU 11762660_at / Fold change /veh 11762660_at / RFU VCAN (11757783_s_at) / Fold change /veh VCAN (11757783_s_at) / RFU DDX43 (11728927_at) / Fold change /veh DDX43 (11728927_at) / RFU KRT8 (11758188_x_at) / Fold change /veh KRT8 (11758188_x_at) / RFU NKD1 (11759106_at) / Fold change /veh NKD1 (11759106_at) / RFU SRD5A1 (11742802_a_at) / Fold change /veh SRD5A1 (11742802_a_at) / RFU TPSAB1 /// TPSB2 (11721975_s_at) / Fold change /veh TPSAB1 /// TPSB2 (11721975_s_at) / RFU GSTM3 (11746129_a_at) / Fold change /veh GSTM3 (11746129_a_at) / RFU IL23R (11737362_x_at) / Fold change /veh IL23R (11737362_x_at) / RFU TMEM51 (11727254_a_at) / Fold change /veh TMEM51 (11727254_a_at) / RFU PIWIL2 (11732686_x_at) / Fold change /veh PIWIL2 (11732686_x_at) / RFU ORM1 (11744905_x_at) / Fold change /veh ORM1 (11744905_x_at) / RFU CCDC152 (11743942_at) / Fold change /veh CCDC152 (11743942_at) / RFU ECM1 (11717891_a_at) / Fold change /veh ECM1 (11717891_a_at) / RFU IL23R (11748794_a_at) / Fold change /veh IL23R (11748794_a_at) / RFU TNFAIP8L3 (11732012_x_at) / Fold change /veh TNFAIP8L3 (11732012_x_at) / RFU MBOAT4 (11741988_at) / Fold change /veh MBOAT4 (11741988_at) / RFU 11764193_at / Fold change /veh 11764193_at / RFU TMEM53 (11763286_at) / Fold change /veh TMEM53 (11763286_at) / RFU MAGEB2 (11727129_at) / Fold change /veh MAGEB2 (11727129_at) / RFU TMEM200A (11744735_a_at) / Fold change /veh TMEM200A (11744735_a_at) / RFU CCDC152 (11751479_a_at) / Fold change /veh CCDC152 (11751479_a_at) / RFU FAM211A (11726209_a_at) / Fold change /veh FAM211A (11726209_a_at) / RFU RGS16 (11746705_a_at) / Fold change /veh RGS16 (11746705_a_at) / RFU VCAN (11755009_s_at) / Fold change /veh VCAN (11755009_s_at) / RFU RHOB (11743442_s_at) / Fold change /veh RHOB (11743442_s_at) / RFU RGS16 (11720943_a_at) / Fold change /veh RGS16 (11720943_a_at) / RFU RGS16 (11720944_at) / Fold change /veh RGS16 (11720944_at) / RFU, VPS4B / Fold change vs veh, VPS4B / RFU, CREB1 / Fold change vs veh, CREB1 / RFU, DNAJC13 / Fold change vs veh, DNAJC13 / RFU, GNAQ / Fold change vs veh, GNAQ / RFU, CDK5R1 / Fold change vs veh, CDK5R1 / RFU, ZRANB3 / Fold change vs veh, ZRANB3 / RFU, CUL4A / Fold change vs veh, CUL4A / RFU, CCNY / Fold change vs veh, CCNY / RFU, UFL1 / Fold change vs veh, UFL1 / RFU, COG3 / Fold change vs veh, COG3 / RFU, DIAPH2 / Fold change vs veh, DIAPH2 / RFU, SKA2 / Fold change vs veh, SKA2 / RFU, AFF3 / Fold change vs veh, AFF3 / RFU, LMF1 / Fold change vs veh, LMF1 / RFU, IPO11 / Fold change vs veh, IPO11 / RFU, DFFB / Fold change vs veh, DFFB / RFU, FOXP1 / Fold change vs veh, FOXP1 / RFU, CARD8 / Fold change vs veh, CARD8 / RFU, STRN3 / Fold change vs veh, STRN3 / RFU, ADK / Fold change vs veh, ADK / RFU, RASSF2 / Fold change vs veh, RASSF2 / RFU, WIPF1 / Fold change vs veh, WIPF1 / RFU, LARP1B / Fold change vs veh, LARP1B / RFU, RASA1 / Fold change vs veh, RASA1 / RFU, RB1 / Fold change vs veh, RB1 / RFU, PPFIA1 / Fold change vs veh, PPFIA1 / RFU, MAT2A / Fold change vs veh, MAT2A / RFU, CCT5 / Fold change vs veh, CCT5 / RFU, WDR92 / Fold change vs veh, WDR92 / RFU, CUX1 / Fold change vs veh, CUX1 / RFU, TTC7A / Fold change vs veh, TTC7A / RFU, TMEM135 / Fold change vs veh, TMEM135 / RFU, DEPTOR / Fold change vs veh, DEPTOR / RFU, CPM / Fold change vs veh, CPM / RFU, DNAJB6 / Fold change vs veh, DNAJB6 / RFU, CACNA2D3 / Fold change vs veh, CACNA2D3 / RFU, DTX4 / Fold change vs veh, DTX4 / RFU, TFCP2 / Fold change vs veh, TFCP2 / RFU, GMCL1 /// GMCL1P1 / Fold change vs veh, GMCL1 /// GMCL1P1 / RFU, AEBP2 / Fold change vs veh, AEBP2 / RFU, SNHG1 /// SNORD22 /// SNORD25 /// SNORD26 /// SNORD27 /// SNORD28 /// SNORD29 /// SNORD31 / Fold change vs veh, SNHG1 /// SNORD22 /// SNORD25 /// SNORD26 /// SNORD27 /// SNORD28 /// SNORD29 /// SNORD31 / Fold change (Aza/veh), C12orf56 (ProbeSet 11735607_a_at) / Fold change (ACY-1035/veh), C12orf56 (ProbeSet 11735607_a_at) / Fold change (Aza/veh), FGFR1OP (ProbeSet 11751329_s_at) / Fold change (ACY-1035/veh), FGFR1OP (ProbeSet 11751329_s_at) / Fold change (Aza/veh), VPS36 (ProbeSet 11739960_a_at) / Fold change (ACY-1035/veh), VPS36 (ProbeSet 11739960_a_at) / RFU SYPL1 (11715823_x_at) / Fold change /veh SYPL1 (11715823_x_at) / RFU IGFBP7 (11715501_s_at) / Fold change /veh IGFBP7 (11715501_s_at) / RFU REEP3 (11722064_at) / Fold change /veh REEP3 (11722064_at) / RFU IGLL1 (11728026_x_at) / Fold change /veh IGLL1 (11728026_x_at): dose or concentration left out as unconfirmed. Conditions: ProbeSet 11734782_x_at; LIST D.

Experimental findings from publication PMC5218480 (PLoS ONE, 2017) are described below.

SMILES strings stand for the structures.

With `Nc1ccc(-c2cccs2)cc1NC(=O)c1ccc2c(c1)cc(C1CC1)n2CCN1CCOCC1` [ACY-1035], the “Fold change vs veh, WDR92” value is on record as 0.89.
